Data published in the NIST ThermoML archive (doi:10.1021/acs.jced.8b00509).

Test: mn = molality of the nth substance listed, in mol/kg
Conditions: 100 kPa, Liquid; for viscosity: Capillary tube (Ostwald / Ubbelohde) method; for speed of sound: Frequency=3 MHz, Single path-length method; for mass density: Vibrating tube method

C[C@H](CCC(=O)[O-])[C@H]1CC[C@H]2[C@@H]3[C@H](O)C[C@@H]4C[C@H](O)CC[C@]4(C)[C@H]3C[C@H](O)[C@]12C.[Na+] [sodium cholate] + O
Conditions	mass density [kg/m3]	speed of sound [m/s]	viscosity [mPa·s]
293.15 K, m1 = 0.002	998.46	1483.6	1.004
293.15 K, m1 = 0.004	998.67	1484.3	1.007
293.15 K, m1 = 0.006	998.88	1484.8	1.011
293.15 K, m1 = 0.008	999.1	1485.3	1.016
293.15 K, m1 = 0.01	999.32	1486	1.021
293.15 K, m1 = 0.012	999.53	1486.7	1.025
293.15 K, m1 = 0.014	999.76	1487.3	1.032
293.15 K, m1 = 0.016	999.98	1487.8	1.037
293.15 K, m1 = 0.018	1000.2	1488.3	1.041
293.15 K, m1 = 0.02	1000.41	1488.8	1.044
293.15 K, m1 = 0.022	1000.63	1489	1.048
293.15 K, m1 = 0.024	1000.83	1489.6	1.051
298.15 K, m1 = 0.002	997.29	1497.5	0.893
298.15 K, m1 = 0.004	997.5	1498	0.896
298.15 K, m1 = 0.006	997.7	1498.6	0.899
298.15 K, m1 = 0.008	997.91	1499.2	0.903
298.15 K, m1 = 0.01	998.13	1499.9	0.906
298.15 K, m1 = 0.012	998.34	1500.5	0.911
298.15 K, m1 = 0.014	998.56	1501	0.918
298.15 K, m1 = 0.016	998.77	1501.6	0.922
298.15 K, m1 = 0.018	998.97	1502	0.926
298.15 K, m1 = 0.02	999.19	1502.3	0.93
298.15 K, m1 = 0.022	999.39	1502.8	0.933
298.15 K, m1 = 0.024	999.6	1503.3	0.936
303.15 K, m1 = 0.002	995.88	1509.8	0.8
303.15 K, m1 = 0.004	996.08	1510.2	0.803
303.15 K, m1 = 0.006	996.29	1510.8	0.806
303.15 K, m1 = 0.008	996.49	1511.3	0.809
303.15 K, m1 = 0.01	996.7	1511.9	0.813
303.15 K, m1 = 0.012	996.91	1512.4	0.817
303.15 K, m1 = 0.014	997.12	1512.9	0.823
303.15 K, m1 = 0.016	997.34	1513.4	0.827
303.15 K, m1 = 0.018	997.54	1513.8	0.831
303.15 K, m1 = 0.02	997.74	1514.2	0.835
303.15 K, m1 = 0.022	997.94	1514.7	0.838
303.15 K, m1 = 0.024	998.14	1515.1	0.841
308.15 K, m1 = 0.002	994.26	1520.5	0.722
308.15 K, m1 = 0.004	994.46	1520.9	0.725
308.15 K, m1 = 0.006	994.66	1521.4	0.727
308.15 K, m1 = 0.008	994.87	1521.9	0.73
308.15 K, m1 = 0.01	995.08	1522.4	0.734
308.15 K, m1 = 0.012	995.29	1522.9	0.737
308.15 K, m1 = 0.014	995.5	1523.4	0.742
308.15 K, m1 = 0.016	995.7	1523.9	0.747
308.15 K, m1 = 0.018	995.9	1524.4	0.751
308.15 K, m1 = 0.02	996.1	1524.8	0.755
308.15 K, m1 = 0.022	996.29	1525.2	0.758
308.15 K, m1 = 0.024	996.49	1525.6	0.76
313.15 K, m1 = 0.002	992.43	1529.5	0.655
313.15 K, m1 = 0.004	992.63	1529.8	0.658
313.15 K, m1 = 0.006	992.84	1530.3	0.66
313.15 K, m1 = 0.008	993.04	1530.8	0.663
313.15 K, m1 = 0.01	993.24	1531.2	0.666
313.15 K, m1 = 0.012	993.45	1531.7	0.67
313.15 K, m1 = 0.014	993.66	1532.2	0.675
313.15 K, m1 = 0.016	993.85	1532.6	0.679
313.15 K, m1 = 0.018	994.05	1533.1	0.684
313.15 K, m1 = 0.02	994.24	1533.5	0.686
313.15 K, m1 = 0.022	994.45	1533.8	0.689
313.15 K, m1 = 0.024	994.64	1534.2	0.691

C[C@H](CCC(=O)[O-])[C@H]1CC[C@H]2[C@@H]3CC[C@@H]4C[C@H](O)CC[C@]4(C)[C@H]3C[C@H](O)[C@]12C.[Na+] [sodium deoxycholate] + O
Conditions	mass density [kg/m3]	speed of sound [m/s]	viscosity [mPa·s]
293.15 K, m1 = 0.001	998.38	1483.7	1.003
293.15 K, m1 = 0.002	998.49	1484.1	1.004
293.15 K, m1 = 0.003	998.58	1484.5	1.006
293.15 K, m1 = 0.004	998.67	1484.7	1.009
293.15 K, m1 = 0.005	998.75	1484.9	1.014
293.15 K, m1 = 0.006	998.83	1485.2	1.027
293.15 K, m1 = 0.007	998.92	1485.4	1.036
293.15 K, m1 = 0.008	999.01	1485.6	1.04
293.15 K, m1 = 0.009	999.11	1485.8	1.045
293.15 K, m1 = 0.01	999.21	1486	1.047
293.15 K, m1 = 0.011	999.32	1486.2	1.05
293.15 K, m1 = 0.012	999.4	1486.4	1.051
298.15 K, m1 = 0.001	997.22	1497.4	0.892
298.15 K, m1 = 0.002	997.31	1497.6	0.893
298.15 K, m1 = 0.003	997.39	1497.9	0.894
298.15 K, m1 = 0.004	997.48	1498.1	0.897
298.15 K, m1 = 0.005	997.56	1498.3	0.902
298.15 K, m1 = 0.006	997.65	1498.6	0.915
298.15 K, m1 = 0.007	997.73	1498.8	0.924
298.15 K, m1 = 0.008	997.83	1499	0.928
298.15 K, m1 = 0.009	998.01	1499.3	0.932
298.15 K, m1 = 0.01	998.11	1499.5	0.934
298.15 K, m1 = 0.011	998.2	1499.7	0.937
298.15 K, m1 = 0.012	998.2	1499.9	0.938
303.15 K, m1 = 0.001	995.81	1509.6	0.799
303.15 K, m1 = 0.002	995.91	1509.8	0.8
303.15 K, m1 = 0.003	995.98	1510	0.801
303.15 K, m1 = 0.004	996.07	1510.2	0.804
303.15 K, m1 = 0.005	996.14	1510.4	0.809
303.15 K, m1 = 0.006	996.22	1510.7	0.822
303.15 K, m1 = 0.007	996.3	1510.9	0.83
303.15 K, m1 = 0.008	996.39	1511.2	0.834
303.15 K, m1 = 0.009	996.48	1511.4	0.839
303.15 K, m1 = 0.01	996.58	1511.6	0.841
303.15 K, m1 = 0.011	996.66	1511.9	0.843
303.15 K, m1 = 0.012	996.75	1512	0.846
308.15 K, m1 = 0.001	994.18	1520.1	0.72
308.15 K, m1 = 0.002	994.27	1520.4	0.721
308.15 K, m1 = 0.003	994.35	1520.6	0.722
308.15 K, m1 = 0.004	994.44	1520.8	0.726
308.15 K, m1 = 0.005	994.52	1521.2	0.73
308.15 K, m1 = 0.006	994.59	1521.5	0.743
308.15 K, m1 = 0.007	994.68	1521.7	0.752
308.15 K, m1 = 0.008	994.77	1522	0.756
308.15 K, m1 = 0.009	994.84	1522.2	0.76
308.15 K, m1 = 0.01	994.93	1522.4	0.763
308.15 K, m1 = 0.011	995.02	1522.2	0.764
308.15 K, m1 = 0.012	995.1	1522.4	0.766
313.15 K, m1 = 0.001	992.3	1529.2	0.654
313.15 K, m1 = 0.002	992.45	1529.4	0.655
313.15 K, m1 = 0.003	992.53	1529.6	0.657
313.15 K, m1 = 0.004	992.61	1529.8	0.659
313.15 K, m1 = 0.005	992.69	1529.9	0.664
313.15 K, m1 = 0.006	992.76	1530.1	0.678
313.15 K, m1 = 0.007	992.84	1530.3	0.686
313.15 K, m1 = 0.008	992.93	1530.5	0.69
313.15 K, m1 = 0.009	993.01	1530.7	0.694
313.15 K, m1 = 0.01	993.1	1530.9	0.695
313.15 K, m1 = 0.011	993.2	1531	0.699
313.15 K, m1 = 0.012	993.28	1531.2	0.699
